Patent US9796733B2, “Imidazo-pyrazine derivatives useful as soluble guanylate cyclase activators” (Merck Sharp & Dohme Corp., priority 2014, dated 2017)

Target: T1, sGC α1/β1 heterodimer (Homo sapiens, UniProt Q02108+Q02153)
T1 construct: expressed in transfected cells; host or cells: CHO-K1 (clone #7, CHO-K1/sGC)
T1 sequence (Q02108 1-690): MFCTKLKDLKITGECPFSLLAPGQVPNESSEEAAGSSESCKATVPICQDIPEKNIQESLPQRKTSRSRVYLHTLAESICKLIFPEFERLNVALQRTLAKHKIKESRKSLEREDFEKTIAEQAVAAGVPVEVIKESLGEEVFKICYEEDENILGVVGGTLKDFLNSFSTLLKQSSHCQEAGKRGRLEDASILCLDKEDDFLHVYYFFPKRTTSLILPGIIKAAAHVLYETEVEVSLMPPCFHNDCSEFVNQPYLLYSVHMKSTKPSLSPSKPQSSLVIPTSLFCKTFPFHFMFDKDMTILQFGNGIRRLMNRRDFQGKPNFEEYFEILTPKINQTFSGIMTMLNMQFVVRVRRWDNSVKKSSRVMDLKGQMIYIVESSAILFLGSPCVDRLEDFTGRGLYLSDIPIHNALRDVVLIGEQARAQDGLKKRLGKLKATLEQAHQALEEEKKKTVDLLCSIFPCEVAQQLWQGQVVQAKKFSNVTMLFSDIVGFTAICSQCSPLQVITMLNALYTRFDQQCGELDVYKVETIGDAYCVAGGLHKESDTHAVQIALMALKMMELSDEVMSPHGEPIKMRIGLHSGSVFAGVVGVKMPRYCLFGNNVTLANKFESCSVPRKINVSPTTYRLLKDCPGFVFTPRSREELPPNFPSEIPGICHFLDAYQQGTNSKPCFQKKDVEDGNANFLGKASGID
T1 sequence (Q02153 1-619): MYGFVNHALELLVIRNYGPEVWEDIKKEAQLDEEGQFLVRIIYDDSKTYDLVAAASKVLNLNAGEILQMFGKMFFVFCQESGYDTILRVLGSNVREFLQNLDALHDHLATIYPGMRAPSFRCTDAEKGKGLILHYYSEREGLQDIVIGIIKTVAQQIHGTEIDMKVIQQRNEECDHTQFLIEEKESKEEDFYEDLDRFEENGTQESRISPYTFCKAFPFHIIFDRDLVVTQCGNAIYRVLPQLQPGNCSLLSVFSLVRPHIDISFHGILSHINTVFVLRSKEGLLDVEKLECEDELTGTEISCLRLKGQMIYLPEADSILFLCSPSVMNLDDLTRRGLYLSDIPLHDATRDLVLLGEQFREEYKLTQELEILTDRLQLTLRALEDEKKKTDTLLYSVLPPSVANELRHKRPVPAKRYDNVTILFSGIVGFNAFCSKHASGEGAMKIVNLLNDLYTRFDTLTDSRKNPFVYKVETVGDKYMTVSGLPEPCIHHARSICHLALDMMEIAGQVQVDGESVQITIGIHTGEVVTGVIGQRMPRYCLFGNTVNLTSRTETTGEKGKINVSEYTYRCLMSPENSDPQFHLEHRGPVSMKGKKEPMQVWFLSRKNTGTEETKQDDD
Assay: Cell-based sGC functional assay (CASA assay): cGMP generation in CHO-K1/sGC cells, HTRF detection
Conditions: for Emax: CHO-K1, percent activation relative to standard Compound A in CHO-K1/sGC cells, read-out: % Act.; for EC50: inflection point (IP) of cGMP generation in CHO-K1/sGC cells, 4P fit, activity expressed as percentage of Compound A; for % Act.: percent activation relative to standard Compound A in CHO-K1/sGC cells
Text: Biological Assay 1: Cell-Based sGC Functional Assay (CASA Assay)
sGC is a heme-containing enzyme that converts GTP to secondary messenger cGMP. Increases in cGMP levels affect several physiological processes including vasorelaxation through multiple downstream pathways. […] Heme-dependent activators (HDAs) preferentially activate sGC containing a ferrous heme group. To determine the effect of sGC activators on enzyme activity, the CASA assay was developed to monitor the generation of cGMP in a cell line that stably expresses the heterodimeric sGC protein.
A CHO-K1 cell line stably expressing the sGC α1/β1 heterodimer was generated using a standard transfection protocol. CHO-K1 cells were transfected with plasmids pIREShyghsGCal and pIRESneo-hsGCβ1 simultaneously using FUGENE reagent. Clones that stably express both subunits were selected with hygromycin and neomycin for 2 weeks. Clone #7 was chosen for the assay and was designated CHO-K1/sGC. CHO-K1/sGC cells were maintained in F-K12 medium containing 10% heat-inactivated Fetal Bovine Serum (FBS), 100 μg/mL penicillin/streptomycin, 0.5 mg/mL hygromycin and 0.25 mg/mL G418. The cells were then cryopreserved in LN2. On the day of the assay, cells thawed and resuspended in EBSS Assay Buffer (Sigma, E3024) supplemented with 5 mM MgCl2, 10 mM HEPES (4-(2-hydroxyethyl)piperazine-1-ethanesulfonic acid) and 0.05% BSA (bovine serum albumin) (EAB) and cell density was then adjusted to 4×10^5/mL with EAR IBMX (3-isobutyl-1-methylxanthin, 0.5 mM) was added to inhibit degradation of cGMP. Compounds were diluted from DMSO stock solutions and added to the assay at a final DMSO concentration of 2.5%. Cells were incubated with compounds in the presence and absence of 1 μM of Diethylenetriamine/nitric oxide adduct (DETA-NO; Sigma, 17018) for 1 hr at 37° C. At the end of the incubation period, the reaction was terminated and the cells were lysed with the detection reagents from Cisbio Kits. The level of intracellular cGMP was determined using an HTRF-based assay kit (CisBio, 62GM2PEC), which detects the displacement of a fluorescence labeled cGMP from its specific antibody. The cGMP produced by test compounds was directly compared to the maximum cGMP production (this value was set to equal 100% activation.) of the published sGC-HDA Compound A:
[drawing 597] (Example 1 in WO 2010/065275, published Jun. 10, 2010). The test compounds' activities were then expressed as a percentage of Compound A, the standard in every experiment. This percent activation was calculated either in the presence or absence of DETA-NO which was then plotted. IP and maximum fold induction was derived using ADA analysis software for 4P fit.
The compounds in the Examples of the instant invention had inflection points (IP) less than or equal to 10 μM and more particularly less than or equal to about 1 μM.

| Structure (SMILES) | Emax [%] | EC50 [nM] | % Act. [%] |
| --- | --- | --- | --- |
| CC1(c2ccccn2)C(=O)Nc2nc(-c3cn4ccnc4c(CCC(F)(F)C(F)(F)F)n3)nc(N)c21 (centres unmarked) [Example 226A, 4-amino-5-methyl-2-(8-(3,3,4,4,4-pentafluorobutyl)imidazo [1,2-a]pyrazin-6-yl)-5-(pyridin-2-yl)-5H-pyrrolo[2,3-d]pyrimidin-6(7H)-one] | 124 | 287 | – |
| CC1(F)CN(c2nc(-c3cn4ccnc4cn3)nc3c2C(C)(c2ccc(Cl)cc2)C(=O)N3)C1 (centres unmarked) [Example 284A, 5-(4-chlorophenyl)-4-(3-fluoro-3-methylazetidin-1-yl)-2-(imidazo[1,2-a]pyrazin-6-yl)-5-methyl-5H-pyrrolo[2,3-d]pyrimidin-6(7H)-one] | 120 | 102 | – |
| Cn1cc(C2(C)C(=O)Nc3nc(-c4cn5ccnc5c(Cc5ccc(F)cc5)n4)nc(N)c32)cn1 (centres unmarked) [Example 88B, 4-amino-2-(8-(4-fluorobenzyl)imidazo[1,2-a]pyrazin-6-yl)-5-methyl-5-(1-methyl-1H-pyrazol-4-yl)-5H-pyrrolo[2,3-d]pyrimidin-6(7H)-one] | 79 | 224 | – |
| Nc1nc(-c2cn3ccnc3c(CCC(F)(F)F)n2)nc2c1C(c1ncc(Cl)cn1)(C1CC1)C(=O)N2 (centres unmarked) [Example 374A, 4-amino-5-(5-chloropyrimidin-2-yl)-5-cyclopropyl-2-(8-(3,3,3-trifluoropropyl)imidazo[1,2-a]pyrazin-6-yl)-5H-pyrrolo[2,3-d]pyrimidin-6(7H)-one] | 126 | 387 | – |
| CC1(c2ccc(Cl)cc2)C(=O)Nc2nc(-c3cn4ccnc4cn3)nc(NCCC(F)(F)F)c21 (centres unmarked) [Example 289A, 5-(4-chlorophenyl)-2-(imidazo[1,2-a]pyrazin-6-yl)-5-methyl-4-((3,3,3-trifluoropropyl)amino)-5H-pyrrolo[2,3-d]pyrimidin-6(7H)-one] | 106 | 289 | – |
| CC1(c2ccc(F)cc2)C(=O)Nc2nc(-c3cn4ccnc4c(Cc4ccccc4F)n3)nc(N)c21 (centres unmarked) [Example 89A, 4-amino-2-(8-(2-fluorobenzyl)imidazo[1,2-a]pyrazin-6-yl)-5-(4-fluorophenyl)-5-methyl-5H-pyrrolo[2,3-d]pyrimidin-6(7H)-one] | 141 | 4 | – |
| CC1(c2ccc(C3CC3)cn2)C(=O)Nc2nc(-c3cn4ccnc4c(CCC(F)(F)C(F)(F)F)n3)nc(N)c21 (centres unmarked) [Example 227B, 4-amino-5-(5-cyclopropylpyridin-2-yl)-5-methyl-2-(8-(3,3,4,4,4-pentafluorobutyl)imidazo [1,2-a]pyrazin-6-yl)-5H-pyrrolo[2,3-d]pyrimidin-6(7H)-one] | 111 | 249 | – |
| Nc1nc(-c2cn3ccnc3c(Cc3ccc(F)cc3)n2)nc2c1C(c1ccc(F)cn1)(C1CC1)C(=O)N2 (centres unmarked) [Example 104A, 4-amino-5-cyclopropyl-2-(8-(4-fluorobenzyl)imidazo[1,2-a]pyrazin-6-yl)-5-(5-fluoropyridin-2-yl)-5H-pyrrolo[2,3-d]pyrimidin-6(7H)-one] | 132 | 396 | – |
| CCC1(C2CC2)C(=O)Nc2nc(-c3cn4ccnc4c(Cc4ccccc4)n3)nc(N)c21 (single isomer, unassigned) [Example 77B, 4-amino-2-(8-benzylimidazo[1,2-a]pyrazin-6-yl)-5-cyclopropyl-5-ethyl-5H-pyrrolo[2,3-d]pyrimidin-6(7H)-one] | – | 30 | 176 |
| CC(C)Cc1nc(-c2nc(N)c3c(n2)NC(=O)C3(C)c2ccc(OC(F)F)cn2)cn2ccnc12 (centres unmarked) [Example 130A, 4-amino-5-(5-(difluoromethoxy)pyridin-2-yl)-2-(8-isobutylimidazo[1,2-a]pyrazin-6-yl)-5-methyl-5H-pyrrolo[2,3-d]pyrimidin-6(7H)-one] | 119 | 324 | – |
| Cc1cnc2c(Cc3ccc(F)cc3)nc(-c3nc(N)c4c(n3)NC(=O)C4(C)c3ccc(F)cn3)cn12 (centres unmarked) [Example 163B, 4-amino-2-(8-(4-fluorobenzyl)-3-methylimidazo[1,2-a]pyrazin-6-yl)-5-(5-fluoropyridin-2-yl)-5-methyl-5H-pyrrolo[2,3-d]pyrimidin-6(7H)-one] | 84 | 230 | – |
| Nc1nc(-c2cn3ccnc3c(Cc3ccc(F)cc3)n2)nc2c1C(c1ccc(Cl)cn1)(C1CC1)C(=O)N2 (single isomer, unassigned) [Example 108B, 4-amino-5-(5-chloropyridin-2-yl)-5-cyclopropyl-2-(8-(4-fluorobenzyl)imidazo[1,2-a]pyrazin-6-yl)-5H-pyrrolo[2,3-d]pyrimidin-6(7H)-one] | – | 16 | 79 |
| COCCNc1nc(-c2cn3ccnc3c(CCC(F)(F)C(F)(F)F)n2)nc2c1C(C)(C)C(=O)N2 [Example 313, 4-((2-Methoxyethyl)amino)-5,5-dimethyl-2-(8-(3,3,4,4,4-pentafluorobutyl)imidazo[1,2-a]pyrazin-6-yl)-5H-pyrrolo[2,3-d]pyrimidin-6(7H)-one] | 93 | 25 | – |
| CC(C)(C)CCc1nc(-c2nc(N)c3c(n2)NC(=O)C3(C)c2ccc(Cl)cn2)cn2ccnc12 (centres unmarked) [Example 123A, 4-amino-5-(5-chloropyridin-2-yl)-2-(8-(3,3-dimethylbutyl)imidazo[1,2-a]pyrazin-6-yl)-5-methyl-5H-pyrrolo[2,3-d]pyrimidin-6(7H)-one] | 105 | 61 | – |
| CCC(CC)Cc1nc(-c2nc(N)c3c(n2)NC(=O)C3(C)c2ccc(F)cn2)cn2ccnc12 (centres unmarked) [Example 18B, 4-amino-2-(8-(2-ethylbutyl)imidazo[1,2-a]pyrazin-6-yl)-5-(5-fluoropyridin-2-yl)-5-methyl-5H-pyrrolo[2,3-d]pyrimidin-6(7H)-one] | 106 | 145 | – |
| CC1(C)C(=O)Nc2nc(-c3cn4cc(C(F)(F)F)nc4c(Cc4cccc(F)c4)n3)nc(N)c21 [Example 75, 4-amino-2-(8-(3-fluorobenzyl)-2-(trifluoromethyl)imidazo[1,2-a]pyrazin-6-yl)-5,5-dimethyl-5H-pyrrolo[2,3-d]pyrimidin-6(7H)-one] | 99 | 862 | – |
